In ChEMBL document CHEMBL5321237 (Eur J Med Chem, 2023):

Columns and labels:
[1] = biological target: T1, Ephrin type-B receptor 6 (Homo sapiens) (UniProt O15197); experiment: Competitive binding affinity to human EPHB6 at 500 nM incubated for 1 hr by qPCR analysis relative to control
T1 sequence (whole entry): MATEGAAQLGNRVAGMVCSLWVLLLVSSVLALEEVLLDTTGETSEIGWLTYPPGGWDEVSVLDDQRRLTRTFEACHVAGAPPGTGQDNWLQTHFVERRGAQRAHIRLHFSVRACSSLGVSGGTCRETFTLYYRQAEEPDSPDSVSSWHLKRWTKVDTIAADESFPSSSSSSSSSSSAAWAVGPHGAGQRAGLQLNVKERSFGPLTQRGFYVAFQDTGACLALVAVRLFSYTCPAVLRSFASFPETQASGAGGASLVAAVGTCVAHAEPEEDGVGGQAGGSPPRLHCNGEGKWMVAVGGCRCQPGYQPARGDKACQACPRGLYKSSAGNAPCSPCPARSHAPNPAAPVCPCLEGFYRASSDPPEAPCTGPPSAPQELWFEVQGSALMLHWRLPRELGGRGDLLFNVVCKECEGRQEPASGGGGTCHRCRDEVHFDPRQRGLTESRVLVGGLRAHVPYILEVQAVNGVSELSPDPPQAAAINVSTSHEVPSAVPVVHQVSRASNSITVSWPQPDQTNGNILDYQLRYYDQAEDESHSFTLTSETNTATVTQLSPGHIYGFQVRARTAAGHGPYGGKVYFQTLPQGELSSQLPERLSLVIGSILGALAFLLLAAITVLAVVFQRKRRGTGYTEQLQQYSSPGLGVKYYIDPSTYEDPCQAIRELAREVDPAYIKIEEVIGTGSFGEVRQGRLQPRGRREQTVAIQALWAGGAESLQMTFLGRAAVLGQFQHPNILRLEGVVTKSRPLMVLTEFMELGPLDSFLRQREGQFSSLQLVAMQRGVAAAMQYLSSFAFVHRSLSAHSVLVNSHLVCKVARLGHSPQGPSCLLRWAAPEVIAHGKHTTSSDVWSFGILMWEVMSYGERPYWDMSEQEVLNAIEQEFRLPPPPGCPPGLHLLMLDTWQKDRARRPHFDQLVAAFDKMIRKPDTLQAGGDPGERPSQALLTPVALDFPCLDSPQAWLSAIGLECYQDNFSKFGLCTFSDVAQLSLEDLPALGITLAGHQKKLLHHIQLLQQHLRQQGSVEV

[2] = biological target: Platelet-derived growth factor receptor alpha (Homo sapiens) (UniProt P16234); experiment: Inhibition of human PDGFRalpha binding to streptavidin-coated magnetic beads immobilized biotinylated ligand at 500 nM incubated for 1 hr by qPCR analysis relative to control
[3] = biological target: Mast/stem cell growth factor receptor Kit (Homo sapiens) (UniProt P10721); experiment: Inhibition of autoinhibited wild type human KIT binding to streptavidin-coated magnetic beads immobilized biotinylated ligand at 500 nM incubated for 1 hr by qPCR analysis relative to control
[4] = biological target: Macrophage colony-stimulating factor 1 receptor (Homo sapiens, UniProt P07333); experiment: Binding affinity to autoinhibited form of CSF1R (unknown origin) assessed as dissociation constant incubated for 1 hr by qPCR based Hill equation analysis
[5] = Metabolic stability in human liver microsomes assessed as intrinsic clearance at 3 uM measured upto 50 mins by LC-MS analysis; type: ADME, Microsome
[6] = Metabolic stability in mouse liver microsomes assessed as intrinsic clearance at 3 uM measured upto 50 mins by LC-MS analysis; type: ADME, Microsome
[7] = biological target: Receptor-type tyrosine-protein kinase FLT3 (Homo sapiens) (UniProt P36888); experiment: Inhibition of autoinhibited human FLT3 binding to streptavidin-coated magnetic beads immobilized biotinylated ligand at 500 nM incubated for 1 hr by qPCR analysis relative to control
Receptor-type tyrosine-protein kinase FLT3 (Homo sapiens), sequence (P36888 whole entry): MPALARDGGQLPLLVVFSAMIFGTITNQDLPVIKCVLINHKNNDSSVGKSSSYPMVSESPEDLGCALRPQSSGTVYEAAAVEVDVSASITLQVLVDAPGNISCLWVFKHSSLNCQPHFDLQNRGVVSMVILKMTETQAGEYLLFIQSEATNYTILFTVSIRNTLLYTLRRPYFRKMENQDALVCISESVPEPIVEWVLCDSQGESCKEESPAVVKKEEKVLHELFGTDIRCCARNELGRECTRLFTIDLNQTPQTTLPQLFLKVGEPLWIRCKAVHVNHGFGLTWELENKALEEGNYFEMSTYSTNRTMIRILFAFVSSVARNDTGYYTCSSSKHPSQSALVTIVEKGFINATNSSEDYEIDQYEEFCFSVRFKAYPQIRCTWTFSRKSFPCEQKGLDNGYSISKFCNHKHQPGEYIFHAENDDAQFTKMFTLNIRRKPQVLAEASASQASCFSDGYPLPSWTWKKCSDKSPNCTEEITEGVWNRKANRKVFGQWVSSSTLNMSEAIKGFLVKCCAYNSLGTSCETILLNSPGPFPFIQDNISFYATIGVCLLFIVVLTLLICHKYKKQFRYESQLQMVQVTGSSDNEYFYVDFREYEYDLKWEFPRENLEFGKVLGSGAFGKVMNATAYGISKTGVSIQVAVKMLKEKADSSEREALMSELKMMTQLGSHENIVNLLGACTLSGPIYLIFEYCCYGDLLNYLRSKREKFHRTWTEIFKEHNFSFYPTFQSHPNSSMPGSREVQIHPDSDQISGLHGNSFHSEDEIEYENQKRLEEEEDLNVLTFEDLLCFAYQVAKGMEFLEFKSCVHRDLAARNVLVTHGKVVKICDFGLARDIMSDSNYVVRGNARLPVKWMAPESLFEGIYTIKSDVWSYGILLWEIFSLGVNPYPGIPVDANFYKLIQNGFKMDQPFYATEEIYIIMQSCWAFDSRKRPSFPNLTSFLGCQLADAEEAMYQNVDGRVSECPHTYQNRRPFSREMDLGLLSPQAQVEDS

Platelet-derived growth factor receptor alpha (Homo sapiens), sequence (P16234 whole entry): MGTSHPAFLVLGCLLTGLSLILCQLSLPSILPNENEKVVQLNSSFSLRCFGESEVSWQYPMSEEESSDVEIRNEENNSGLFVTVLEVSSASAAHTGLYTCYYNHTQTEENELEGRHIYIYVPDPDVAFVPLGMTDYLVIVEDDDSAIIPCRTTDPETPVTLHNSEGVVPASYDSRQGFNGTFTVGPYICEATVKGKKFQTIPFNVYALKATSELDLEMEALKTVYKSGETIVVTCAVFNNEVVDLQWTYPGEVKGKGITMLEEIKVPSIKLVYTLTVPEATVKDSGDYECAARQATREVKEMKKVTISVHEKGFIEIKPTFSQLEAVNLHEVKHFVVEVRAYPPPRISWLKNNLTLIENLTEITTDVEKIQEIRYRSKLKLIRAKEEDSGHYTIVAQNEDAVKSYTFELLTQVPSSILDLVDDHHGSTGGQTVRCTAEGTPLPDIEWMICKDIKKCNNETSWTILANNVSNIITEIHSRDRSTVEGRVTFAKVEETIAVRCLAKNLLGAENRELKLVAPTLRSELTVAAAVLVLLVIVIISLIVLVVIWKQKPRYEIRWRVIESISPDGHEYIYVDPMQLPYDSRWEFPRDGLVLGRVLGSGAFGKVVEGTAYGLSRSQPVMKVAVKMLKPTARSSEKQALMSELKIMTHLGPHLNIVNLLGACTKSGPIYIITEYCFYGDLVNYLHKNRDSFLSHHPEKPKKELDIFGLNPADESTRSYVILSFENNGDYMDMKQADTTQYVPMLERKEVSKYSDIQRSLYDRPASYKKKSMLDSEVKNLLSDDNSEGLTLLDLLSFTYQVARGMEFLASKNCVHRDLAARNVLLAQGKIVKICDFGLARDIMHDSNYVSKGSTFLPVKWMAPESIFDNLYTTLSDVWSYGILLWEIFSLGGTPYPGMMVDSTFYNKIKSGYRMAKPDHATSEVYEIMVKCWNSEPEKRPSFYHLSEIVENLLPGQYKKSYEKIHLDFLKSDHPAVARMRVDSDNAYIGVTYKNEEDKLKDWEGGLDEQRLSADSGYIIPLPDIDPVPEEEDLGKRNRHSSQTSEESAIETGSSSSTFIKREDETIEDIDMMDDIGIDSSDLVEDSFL
Macrophage colony-stimulating factor 1 receptor, sequence (P07333 whole entry): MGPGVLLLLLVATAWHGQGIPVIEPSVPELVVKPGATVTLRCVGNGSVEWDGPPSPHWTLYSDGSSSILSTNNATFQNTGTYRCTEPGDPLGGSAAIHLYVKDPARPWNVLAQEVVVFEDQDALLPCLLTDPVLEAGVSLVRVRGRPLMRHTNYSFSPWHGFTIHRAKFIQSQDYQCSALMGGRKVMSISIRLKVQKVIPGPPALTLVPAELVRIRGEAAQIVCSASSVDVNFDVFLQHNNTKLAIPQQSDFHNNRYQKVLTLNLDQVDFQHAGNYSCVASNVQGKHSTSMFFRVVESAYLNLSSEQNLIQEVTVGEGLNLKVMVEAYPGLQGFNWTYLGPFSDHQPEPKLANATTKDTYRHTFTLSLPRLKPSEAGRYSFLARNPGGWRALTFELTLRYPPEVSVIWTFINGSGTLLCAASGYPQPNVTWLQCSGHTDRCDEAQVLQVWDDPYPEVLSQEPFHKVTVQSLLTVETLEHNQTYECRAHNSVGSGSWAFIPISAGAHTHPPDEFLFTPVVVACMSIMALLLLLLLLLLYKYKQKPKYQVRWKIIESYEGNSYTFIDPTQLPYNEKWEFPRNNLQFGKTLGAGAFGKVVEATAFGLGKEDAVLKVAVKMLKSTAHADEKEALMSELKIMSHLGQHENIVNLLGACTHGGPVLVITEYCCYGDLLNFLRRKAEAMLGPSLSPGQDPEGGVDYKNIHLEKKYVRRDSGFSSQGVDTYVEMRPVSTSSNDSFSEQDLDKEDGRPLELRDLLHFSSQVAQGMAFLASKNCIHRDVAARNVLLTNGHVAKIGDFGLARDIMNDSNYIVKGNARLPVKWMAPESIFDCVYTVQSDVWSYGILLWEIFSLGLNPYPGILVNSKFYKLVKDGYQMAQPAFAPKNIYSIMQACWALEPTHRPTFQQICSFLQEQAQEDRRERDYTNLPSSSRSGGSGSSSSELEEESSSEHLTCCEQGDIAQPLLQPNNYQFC
Mast/stem cell growth factor receptor Kit (Homo sapiens), sequence (P10721 whole entry): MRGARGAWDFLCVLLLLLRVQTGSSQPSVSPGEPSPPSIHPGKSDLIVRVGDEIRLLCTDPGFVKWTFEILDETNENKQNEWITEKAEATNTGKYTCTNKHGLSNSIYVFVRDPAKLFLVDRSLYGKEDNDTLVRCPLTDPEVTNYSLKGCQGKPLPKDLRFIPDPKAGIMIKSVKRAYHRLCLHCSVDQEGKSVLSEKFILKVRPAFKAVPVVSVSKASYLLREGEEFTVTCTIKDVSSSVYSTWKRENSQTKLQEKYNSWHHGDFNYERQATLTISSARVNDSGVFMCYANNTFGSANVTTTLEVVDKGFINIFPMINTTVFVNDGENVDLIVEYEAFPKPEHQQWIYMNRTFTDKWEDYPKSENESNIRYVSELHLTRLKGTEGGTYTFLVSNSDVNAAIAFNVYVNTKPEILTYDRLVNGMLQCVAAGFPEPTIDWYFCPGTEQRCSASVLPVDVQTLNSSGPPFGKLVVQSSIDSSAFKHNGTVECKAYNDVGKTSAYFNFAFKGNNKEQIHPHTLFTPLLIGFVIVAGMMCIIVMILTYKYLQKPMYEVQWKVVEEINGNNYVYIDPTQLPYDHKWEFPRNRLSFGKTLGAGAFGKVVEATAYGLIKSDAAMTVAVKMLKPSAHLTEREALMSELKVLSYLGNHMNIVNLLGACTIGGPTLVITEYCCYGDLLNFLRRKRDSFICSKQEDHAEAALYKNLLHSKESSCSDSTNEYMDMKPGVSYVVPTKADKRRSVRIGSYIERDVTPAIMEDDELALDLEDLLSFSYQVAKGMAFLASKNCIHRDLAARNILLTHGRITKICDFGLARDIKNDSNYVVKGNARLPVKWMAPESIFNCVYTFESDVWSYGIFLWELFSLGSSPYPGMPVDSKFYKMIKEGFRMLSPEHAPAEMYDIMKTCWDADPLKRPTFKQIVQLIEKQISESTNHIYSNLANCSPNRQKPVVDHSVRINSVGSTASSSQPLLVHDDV

Activity [1]: 87%
inhibition [2]: 12%
inhibition [3]: 12%
Kd [4]: 17 nM
CLint [5]: 36.4 µL/min/mg
CLint [6]: 243 µL/min/mg
inhibition [7]: 12%
Compound: CN(CC1CCCC1)c1ncnc2[nH]c(-c3ccc(CO)cc3)nc12
